Earlier results in patent publication US20090285811A1, “ANTI-INFLAMMATORY AND IMMUNOSUPPRESSIVE GLUCOCORTICOID STEROIDS” (Auspex Pharmaceuticals, Inc., priority 2008, published 2009).
Like-named read-outs stand apart in the source and are kept apart here.

Experiments:
glucocorticoid receptor = molecular target: T1, glucocorticoid receptor (Homo sapiens, UniProt P04150); settings: primary human CYP3A metabolites of budesonide
T1 sequence (P04150 1-777): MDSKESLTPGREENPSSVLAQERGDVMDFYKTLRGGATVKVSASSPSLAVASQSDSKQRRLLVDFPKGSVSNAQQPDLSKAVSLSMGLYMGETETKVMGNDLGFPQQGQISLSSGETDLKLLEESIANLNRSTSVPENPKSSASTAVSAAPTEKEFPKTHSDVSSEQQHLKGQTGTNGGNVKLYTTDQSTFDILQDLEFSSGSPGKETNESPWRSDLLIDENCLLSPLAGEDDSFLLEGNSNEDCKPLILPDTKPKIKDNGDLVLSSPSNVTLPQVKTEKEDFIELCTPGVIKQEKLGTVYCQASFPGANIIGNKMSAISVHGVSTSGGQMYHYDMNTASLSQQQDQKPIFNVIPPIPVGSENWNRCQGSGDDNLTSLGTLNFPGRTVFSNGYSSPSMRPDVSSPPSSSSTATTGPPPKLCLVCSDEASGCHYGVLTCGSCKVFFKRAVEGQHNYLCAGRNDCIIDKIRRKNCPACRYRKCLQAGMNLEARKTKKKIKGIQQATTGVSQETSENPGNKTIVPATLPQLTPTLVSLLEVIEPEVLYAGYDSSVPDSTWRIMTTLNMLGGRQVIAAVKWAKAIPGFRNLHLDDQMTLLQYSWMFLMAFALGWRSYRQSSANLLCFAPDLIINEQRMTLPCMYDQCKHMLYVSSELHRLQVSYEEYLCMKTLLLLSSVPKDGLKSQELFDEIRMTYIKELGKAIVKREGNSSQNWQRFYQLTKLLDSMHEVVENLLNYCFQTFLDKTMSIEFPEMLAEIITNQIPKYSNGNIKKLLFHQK

SMILES | systemic availability (after oral administration) | elimination half-life (in vivo) | systemic availability (intranasal administration) | clearance (non-oral routes of administration) | clearance (oral administration) [mL/min/kg] | potency compared with budesonide (glucocorticoid receptor)
CCCC1O[C@@H]2C[C@H]3[C@@H]4CCC5=CC(=O)C=C[C@]5(C)[C@H]4[C@@H](O)C[C@]3(C)[C@]2(C(=O)CO)O1 (stereo partly drawn) [Budesonide, 16,17-(butylidenebis(oxy))-11,21-dihydroxy-, (11-β,16-α)-pregna-1,4-diene-3,20-dione] | approximately 12% | approximately 2 hours | about 20% | about 20 mL/min/Kg | ~40 | –
C[C@]12C=CC(=O)C=C1CC[C@@H]1[C@@H]2[C@@H](O)C[C@@]2(C)[C@H]1C[C@@H](O)[C@]2(O)C(=O)CO [16α-hydroxyprednisolone] | – | – | – | – | – | significantly less potent
CCCC1O[C@@H]2C[C@H]3[C@@H]4C[C@@H](O)C5=CC(=O)C=C[C@]5(C)[C@H]4[C@@H](O)C[C@]3(C)[C@]2(C(=O)CO)O1 (stereo partly drawn) [6β-hydroxybudesonide] | – | – | – | – | – | significantly less potent
